Test results as given in US20230293629A1, “METHODS FOR ATTENUATING RELEASE OF INFLAMMATORY MEDIATORS AND PEPTIDES USEFUL THEREIN” (BIOMARCK PHARMACEUTICALS LTD., priority 2006, published 2023).
Several values for one entry are separate records, joined by “and”; a condition that tells them apart may be missing. Identical values can stand only once. Where a SMILES comes first, the peptide text is derived from it. Where no end group is shown, it is not given here. The star is where a group is joined. Myristoyl = CCCCCCCCCCCCCC(=O)*

Experiments:
[1] = system: ozone-induced neutrophil migration; experiment: Mouse model of ozone-induced COPD: neutrophil migration, IL-6, KC, IFNγ in BAL fluid; format: in vivo, mice; settings: for Concentration of IFNγ in BAL fluid / Concentration of KC in BAL fluid / Concentration of IL-6 in BAL fluid: 25 μL 1.0 mM peptide intratracheal 30 min before 2 h ozone; for Concentration of IFNγ in BAL fluid: PBS+ozone 8.6, forced air 5.0; for Concentration of KC in BAL fluid: PBS+ozone 466.6, forced air 36.3; for Concentration of IL-6 in BAL fluid: PBS+ozone 1041.3, forced air 43.2
Description: Ten-week-old Balb/C female mice were obtained from Charles River laboratories and housed under NIH guidelines in groups of 5 per cage. The animals received standard rodent diet and filtered water ad libitum. Three treatment groups of mice, 5 animals in each group, were each anesthetized by intraperitoneal injection of Ketamine (100 mg/kg) and Xylazine (20 mg/kg) and then pretreated by intratracheal administration with 25 μL of either PBS alone, or a solution of 1.0 mM MANS peptide in PBS, or a solution of a 1.0 mM of an acetylated MANS-fragment-peptide Ac-[…] designated as acetylated SEQ ID NO: 106 in PBS. After 30 minutes, the animals were then placed in the appropriate custom-made chamber for ozone or forced air exposures. The animals were exposed to ozone for 2 hours (at ozone concentrations of 1-10 ppm by a slightly modified method described by Haddad et al, 1995. (Haddad E-B, Salmon M, Sun J, Liu S, Das A, Adcock I, Barnes P J, and Chung K F, FEBS Letters, 363:285-288, 1995). The ozone was generated using an ozone generator apparatus model OL80F/B from OzoneLab, Burton, British Columbia, Canada. Ozone concentration was continuously monitored using a Teledyne Photometric 03 Analyzer (model 400E, Teledyne Instruments, City of Industry, CA). Two additional groups of mice, each without any pretreatment, were either exposed to ozone under the same conditions or exposed to forced air under conditions similar to the ozone treatment group but absent ozone. After exposure, the animals were sacrificed by exsanguination and the lungs were serially lavaged 2 times with 1.0 mL aliquots of PBS. The collected bronchoalveolar lavage (BAL) fluid was centrifuged to remove the cells for subsequent counting and differential analysis. Recovered lavage fluid was used for protein and additional analysis of IL-6, IFNγ, and KC (murine IL-8 analog) by ELISA assay (assay kits obtained from R&D Systems, Minneapolis, MN).
The percent inhibition of neutrophil migration into the BAL fluid as a function of treatment groups and relative to a control group treated with PBS alone are provided in the table.

[2] = system: MARCKS phosphorylation in NHBE cells; experiment: MARCKS phosphorylation in NHBE cells, radiolabeled immunoprecipitation assay; format: cell-based, human; settings: 100 nM PMA, NHBE cells
Description: Radiolabeled Immunoprecipitation Assay—When labeling with [^32P]phosphate, cells were preincubated for 2 h in phosphate-free Dulbecco's modified Eagle's medium containing 0.2% bovine serum albumin and then labeled with 0.1 mCi/ml [^32P]orthophosphate (9000 Ci/mmol, PerkinElmer Life Sciences) for 2 h. For labeling with [^3H]myristic acid or 3H-amino acids, cells were incubated overnight in medium containing 50 μCi/ml [^3H]myristic acid (49 Ci/mmol, PerkinElmer Life Sciences) or 0.2 mCi/ml [^3H]leucine (159 Ci/mmol, PerkinElmer Life Sciences) plus 0.4 mCi/ml [^3H]proline (100 Ci/mmol, PerkinElmer Life Sciences). Following labeling, cells were exposed to stimulatory reagents for 5 min. When an inhibitor was used, cells were preincubated with the inhibitor for 15 min prior to stimulation. At the end of the treatments, cells were lysed in a buffer containing 50 mM Tris-HCl (pH 7.5), 150 mM NaCl, 1 mM EDTA, 10% glycerol, 1% Nonidet P-40, 1 mM phenylmethylsulfonyl fluoride, 1 mM benzamidine, 10 μg/ml pepstatin A, and 10 μg/ml leupeptin. Trichloroacetic acid precipitation and scintillation counting may determine the radiolabeling efficiency in each culture. Immunoprecipitation of MARCKS protein was carried out according to the method of Spizz and Blackshear using cell lysates containing equal counts/min. Spizz et al., J. Biol. Chem. 271, 553-562 (1996). Precipitated proteins were resolved by 8% SDS-polyacrylamide gel electrophoresis and visualized by autoradiography. Anti-human MARCKS antibody (2F12) and nonimmune control antibody (6F6) were used in this assay.
To assess MARCKS or MARCKS-associated protein complexes in different subcellular fractions, radiolabeled and treated cells were scraped into a homogenization buffer (50 mM Tris-HCl (pH 7.5), 10 mM NaCl, 1 mM EDTA, 1 mM phenylmethylsulfonyl fluoride, 1 mM benzamidine, 10 μg/ml pepstatin A, 10 μg/ml leupeptin) and then disrupted by nitrogen cavitation (800 pounds/square inch for 20 min at 4° C.). Cell lysates were centrifuged at 600×g for 10 min at 4° C. to remove nuclei and unbroken cells. Post-nuclear supernatants were separated into membrane and cytosol fractions by ultracentrifugation at 400,000×g for 30 min at 4° C. The membrane pellet was solubilized in the lysis buffer by sonication. Immunoprecipitation was then carried out as described above.

[3] = after ozone exposure, vs. PBS control, listed as acetylated SEQ ID NO:106

| Compound | Concentration of IFNγ in BAL fluid [1] | Concentration of KC in BAL fluid [1] | Concentration of IL-6 in BAL fluid [1] | % Inhibition of neutrophil migration into BAL fluid ([1]; Balb/C mice, intratracheal pretreatment with 25 μL of 1.0 mM peptide in PBS 30 minutes before 2 hours ozone exposure, relative to control group treated with PBS alone) [%] | effect on interferon-γ levels ([1]; after ozone exposure) | reduced neutrophil cell infiltration in the BAL fluid after ozone exposure ([1]; vs. PBS control) | increase in MARCKS phosphorylation [2] | diminished IL-6 levels / inhibition of IL-6 levels in BAL fluid [1, 3] | diminished KC concentrations / inhibition of KC levels in BAL fluid [1, 3] |
| --- | --- | --- | --- | --- | --- | --- | --- | --- | --- |
| CCCCCCCCCCCCCC(=O)NCC(=O)N[C@@H](C)C(=O)N[C@@H](CCC(N)=O)C(=O)N[C@@H](Cc1ccccc1)C(=O)N[C@@H](CO)C(=O)N[C@@H](CCCCN)C(=O)N[C@H](C(=O)N[C@@H](C)C(=O)N[C@@H](C)C(=O)N[C@@H](CCCCN)C(=O)NCC(=O)N[C@@H](CCC(=O)O)C(=O)N[C@@H](C)C(=O)N[C@@H](C)C(=O)N[C@@H](C)C(=O)N[C@@H](CCC(=O)O)C(=O)N[C@@H](CCCNC(=N)N)C(=O)N1CCC[C@H]1C(=O)NCC(=O)N[C@@H](CCC(=O)O)C(=O)N[C@@H](C)C(=O)N[C@@H](C)C(=O)N[C@H](C(=O)N[C@@H](C)C(=O)O)C(C)C)[C@@H](C)O [MANS] (Myristoyl-GAQFSKTAAKGEAAAERPGEAAVA-OH; C-terminus assumed) | approximately 7.4 pg/mL | approximately 183.6 pg/mL | approximately 364.5 pg/mL | 93.0 | little effect | 93%±10% |  |  |  |
| CCCCCCCCCCCCCC(=O)O[C@@H]1[C@@H](C)[C@@]2(O)[C@@H](C=C(CO)C[C@]3(O)C(=O)C(C)=C[C@@H]23)[C@@H]2C(C)(C)[C@]12OC(C)=O [PMA, phorbol 12-myristate 13-acetate] |  |  |  |  |  |  | 3-4 fold |  |  |
| Ac-GAQFSKTAAK [Ac-GAQFSKTAAK] | approximately 3.6 pg/mL | approximately 159.7 pg/mL | approximately 130.4 pg/mL |  | little effect | 81%±10% |  | 91.3%±15% and ~91% | 71.3%±10% and ~71% |
